This is an account of results in US6608086B2, “Dihydropyridines and new uses thereof” (Synaptic Pharmaceutical Corporation, priority 1993, dated 2003).

Where a name gives a salt, the structure may show the parent alone. Read-outs that look alike come from different tables or passages of the source.

The target in assay [1] is T1, α2A receptor (Homo sapiens, UniProt P08913).
T1 construct: host or cells: LM(tk-) cells, line L-α2A
T1 sequence (P08913 1-465): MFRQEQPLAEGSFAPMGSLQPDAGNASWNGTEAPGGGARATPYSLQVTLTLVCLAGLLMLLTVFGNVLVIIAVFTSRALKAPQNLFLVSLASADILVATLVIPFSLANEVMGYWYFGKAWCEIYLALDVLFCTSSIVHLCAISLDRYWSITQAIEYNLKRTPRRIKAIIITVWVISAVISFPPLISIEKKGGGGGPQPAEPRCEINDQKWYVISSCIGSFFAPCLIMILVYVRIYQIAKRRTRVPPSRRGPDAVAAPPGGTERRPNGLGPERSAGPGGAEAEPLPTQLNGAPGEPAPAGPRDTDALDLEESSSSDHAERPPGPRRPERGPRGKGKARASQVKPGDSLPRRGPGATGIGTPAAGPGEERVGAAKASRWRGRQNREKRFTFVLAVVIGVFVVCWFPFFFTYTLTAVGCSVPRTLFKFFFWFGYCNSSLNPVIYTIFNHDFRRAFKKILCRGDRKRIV
As to the kind of experiment: Competition binding, [3H]rauwolscine, human α2A receptor. An excerpt: The protocols for these experiments are given below.
α2 Human Adrenergic Receptors:
To determine the potency of […], antagonists at the α2 receptors, LM(tk−) cell lines stably transfected with the genes encoding the α2A, α2B, and α2C receptors were used. The cell line expressing the α2A receptor is designated L-α2A, and was deposited on Nov. […] The cell line expressing the α2B receptor is designated L-NGC-α2B, and was deposited on Oct. […] The cell line expressing the α2C receptor is designated L-α2C, and was deposited on Nov. […] Cell lysates were prepared as described above (see Radioligand Binding Assays), and suspended in 25 mM glycylglycine buffer (pH 7.6 at room temperature). Equilibrium competition binding assay were performed using [3H]rauwolscine (0.5 nM), and nonspecific binding was determined by incubation with 10 μM phentolamine. The bound radioligand was separated by filtration through GF/B filters using a cell harvester.

Assay [2] has as its target T2, α1A Human Adrenergic Receptor (Homo sapiens, UniProt P25100).
T2 construct: The entire coding region of α1A (1719 bp); expressed in transfected cells
T2 sequence (P25100 1-572): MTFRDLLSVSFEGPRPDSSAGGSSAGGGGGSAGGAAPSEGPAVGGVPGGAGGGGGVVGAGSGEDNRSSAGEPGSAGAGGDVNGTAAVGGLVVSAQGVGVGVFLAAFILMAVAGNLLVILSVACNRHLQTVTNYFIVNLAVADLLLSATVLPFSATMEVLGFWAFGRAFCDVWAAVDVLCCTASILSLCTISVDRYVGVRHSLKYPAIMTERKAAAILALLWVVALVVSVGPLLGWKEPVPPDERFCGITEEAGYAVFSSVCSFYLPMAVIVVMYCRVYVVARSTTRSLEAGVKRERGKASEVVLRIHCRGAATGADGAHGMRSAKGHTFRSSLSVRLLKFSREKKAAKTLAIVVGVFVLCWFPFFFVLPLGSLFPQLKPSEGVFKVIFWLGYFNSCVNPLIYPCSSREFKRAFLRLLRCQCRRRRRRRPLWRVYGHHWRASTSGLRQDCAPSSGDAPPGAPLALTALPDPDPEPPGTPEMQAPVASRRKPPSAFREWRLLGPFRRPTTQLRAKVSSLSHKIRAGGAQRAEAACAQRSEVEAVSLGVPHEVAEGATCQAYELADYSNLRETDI
Put plainly: Radioligand binding, [3H]prazosin, cloned human α1A adrenergic receptor. The procedure, abridged:
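In pH 7.5 Tris/MgCl2/ascorbic acid buffer, α1A-expressing LM(tk−) membranes are exposed to 0.5 nM [3H]prazosin (37° C, 20 min). Excess phentolamine (10 μM) marks nonspecific binding before rapid filtration.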

[3] abbreviates: [3H]rauwolscine, human receptor, LM(tk-) cell lysates, mean, read-out: PKi alpha-2 2a (converted).
Setting [4] is: PKi alpha-1 1a, [3H]prazosin, cloned human receptor, LM(tk-) cell membranes, mean.
[5] abbreviates: [3H]rauwolscine, human α2A receptor, LM(tk-) cells, read-out: PKi alpha-2 2a (converted).
The mark [6] stands for this setting: [3H]prazosin, cloned human α1A receptor, LM(tk-) cell membranes, read-out: PKi alpha-1 1a (converted).
Where [7] appears, read: [3H]prazosin, cloned human receptor, LM(tk-) cell membranes, mean, read-out: PKi alpha-1 1a (converted).
Setting [8] is: [3H]rauwolscine, LM(tk-) cell line L-α2A, SEM and n in lines below, read-out: pKi alpha-2 2a (converted).
Setting [9] is: [3H]prazosin, cloned human receptor in LM(tk-) cell membranes, SEM and n in lines below, read-out: pKi alpha-1 1a (converted).

As to `CCC1=C(C(N)=O)C(c2ccc([N+](=O)[O-])cc2)C(C(=O)NCCCN2CCC(C(=O)OC)(c3ccccc3)CC2)=C(CC)N1` (centres unmarked) [Example 200], the values for the Ki in assay [1] and in assay [2] (PKi alpha-1 1a) were 5500 nM and 3310 nM, respectively.

On to `CC(=O)C1=C(C)NC(CCCCN)=C(C(=O)NCCCN2CCC(c3ccccc3)(c3ccccc3)CC2)C1c1ccc([N+](=O)[O-])cc1` (centres unmarked) [Example 176, 5-Acetyl-2-(4-aminobutyl)-1,4-dihydro-6-methyl-4-(4-nitrophenyl)-3-{N-[3-(4,4-diphenylpiperidin-1-yl)propyl]}carboxamidopyridine], for which the Ki was 977 nM in assay [1] (setting [3]) and 309 nM in assay [2] (setting [4]).

Take `CCC1=C(C(=O)NN2CCOCC2)C(c2ccc([N+](=O)[O-])cc2)C(C(=O)NCCCN2CCC(c3ccccc3)(c3ccccc3)CC2)=C(COC)N1` (centres unmarked) [Example 248, 6-Ethyl-1,4-dihydro-2-((methyl)oxy)methyl-5-N-(morpholin-4yl)carboxamido-4-(4-nitro)phenyl-3-(N-(3-(4,4-diphenylpiperidin-1-yl)propyl))carboxamidopyridine]: the Ki in assay [1] (setting [5]) is 1000 nM; in assay [2] (setting [6]) it was 2950 nM.

Turning to `CCOC(=O)C1(c2ccccc2)CCN(CCCNC(=O)C2=C(COCCN)NC(CC)=C(C(N)=O)C2c2ccc([N+](=O)[O-])cc2)CC1` (centres unmarked) [Example 193, 2-[(2-Aminoethoxy)methyl]-5-carboxamido-3-{N-[3-(4-ethoxycarbonyl-4-phenylpiperidin-1-yl)propyl]}carboxamido-1,4-dihydro-6-ethyl-4-(4-nitrophenyl)pyridine], the Ki in assay [1] (setting [3]) is 1020 nM; in assay [2] (setting [7]) it was 2880 nM.

As for `CCOC(=O)C1(c2ccccc2)CCN(CCCNC(=O)C2=C(COCCN)NC(CC)=C(C(=O)O)C2c2ccc([N+](=O)[O-])cc2)CC1` (centres unmarked) [Example 196, 2-[(2-Aminoethoxy)methyl]-3-{N-[3-(4-ethoxycarbonyl-4-phenylpiperidin-1-yl)propyl]}carboxamido-1,4-dihydro-6-ethyl-4-(4-nitrophenyl)pyridine-5-carboxylic Acid], the Ki in assay [1] (setting [3]) is 8320 nM; in assay [2] (setting [7]) it was 6760 nM.

Turning to `CCNC(=O)C1=C(CC)NC(COCCN)=C(C(=O)NCCCN2CCC(C(=O)OCC)(c3ccccc3)CC2)C1c1ccc([N+](=O)[O-])cc1` (centres unmarked) [Example 192, 2-[(2-Aminoethoxy)methyl]-3-{N-[3-(4-ethoxycarbonyl-4-phenyl-piperidin-1-yl)propyl]}carboxamido-1,4-dihydro-6-ethyl-5-(N-ethyl)carboxamido-4-(4-nitrophenyl)pyridine], the Ki in assay [1] (setting [3]) is 3720 nM; in assay [2] (setting [7]) it was 3020 nM.

Consider `CCC1=C(C(=O)NC)C(c2ccc([N+](=O)[O-])cc2)C(C(=O)NCCCN2CCC(C(=O)OC)(c3ccccc3)CC2)=C(CCCCOC)N1` (centres unmarked) [Example 174, 6-Ethyl-1,4-dihydro-2-(4-methoxybutyl)-3-{N-[3-(4-methoxycarbonyl-4-phenylpiperidin-1-yl)propyl]}carboxamido-5-(N-methyl)carboxamido-4-(4-nitrophenyl)pyridine], for which the Ki in assay [1] (setting [3]) was 2000 nM; in assay [2] (setting [7]), 3980 nM.

Turning to `COC(=O)C1=C(C)NC(C)=C(C(=O)NCCCN2CCC(c3ccccc3)CC2)C1c1ccc([N+](=O)[O-])cc1` (single isomer, unassigned; (+)) [(+)-45, 1,4-Dihydro-3-methoxycarbonyl-2,6-dimethyl-4-(4-nitrophenyl)-5-{N-[3-(4-phenylpiperidin-1-yl)propyl]}carboxamidopyridine hydrochloride hemihydrate], the Ki in assay [1] (setting [8]) was 240 nM; in assay [2] (setting [9]), 178 nM.

As for `CCC1=C(C(=O)NC)C(c2ccc([N+](=O)[O-])cc2)C(C(=O)NCCCN2CCC(C(=O)OC)(c3ccccc3)CC2)=C(CC)N1` (centres unmarked) [Example 179, 2,6-Diethyl-1,4-dihydro-3-{N-[3-(4-methoxycarbonyl-4-phenyl-piperidin-1-yl)propyl]}carboxamido-5-(N-methyl)carboxamido-4-(4-nitrophenyl)pyridine], the Ki is 3310 nM in assay [1] and 4170 nM in assay [2] (PKi alpha-1 1a).

As for `COC(=O)C1(c2ccccc2)CCN(CCCNC(=O)C2=C(COCCCN)NC(C)=C(C(C)=O)C2c2ccc([N+](=O)[O-])cc2)CC1` (centres unmarked) [Example 241, 5-Acetyl-2-((3-aminopropyl)oxy)methyl-1,4-dihydro-3-(N-(3-(4-methoxycarbonyl-4-phenylpiperidin-1-yl)propyl))carboxamido-6-methyl-4-(4-nitro)phenylpyridine], the Ki in assay [1] is 1580 nM; in assay [2] (PKi alpha-1 1a) it was 1450 nM.

With `CCOC(=O)C1(c2ccccc2)CCN(CCCNC(=O)C2=C(COC)NC(CC)=C(C(=O)O)C2c2ccc([N+](=O)[O-])cc2)CC1` (centres unmarked) [Example 240, 3-(N-3-(4-Ethoxycarbonyl-4-phenylpiperidin-1-yl)propyl)carboxamido-6-ethyl-1,4-dihydro-2-(methyloxy)methyl-4-(4-nitro)phenylpyridine-5-carboxylic Acid], the figures for the Ki in assay [1] and in assay [2] (PKi alpha-1 1a) were 18600 nM and 10000 nM, respectively.

Regarding `COc1cc2c(c(OC)c1)CCN(CCCNC(=O)C1=C(c3ccoc3)NC(C)=C(C(N)=O)C1c1ccc([N+](=O)[O-])cc1)C2.Cl.O` (centres unmarked) [Example 67], in assay [1] ([3H]rauwolscine, LM(tk-) cell line L-α2A, SEM and n in lines below), the “pKi alpha-2 2a” value was determined as 6.45. In addition, the “pKi alpha-1 1a” value in assay [2] ([3H]prazosin, cloned human receptor in LM(tk-) cell membranes, SEM and n in lines below) stood at 5.96.

Turning to `COC(=O)C1(c2ccccc2)CCN(CCCNC(=O)C2=C(CCCCN)NC(C)=C(C(C)=O)C2c2ccc([N+](=O)[O-])cc2)CC1` (centres unmarked) [Example 178, 5-Acetyl-2-(4-aminobutyl)-1,4-dihydro-3-{N-[3-(4-methoxycarbonyl-4-phenylpiperidin-1-yl)propyl]}carboxamido-6-methyl-4-(4-nitrophenyl) pyridine], the Ki in assay [1] (setting [3]) was 912 nM; in assay [2] (setting [7]), 832 nM.

Consider `CCOC(=O)C1(c2ccccc2)CCN(CCCNC(=O)C2=C(COCCN)NC(C)=C(C(C)=O)C2c2ccc3c(c2)OCO3)CC1` (centres unmarked) [Example 244, 5-Acetyl-2-((2-aminoethyl)oxy)methyl-3-(N-(3-(4-ethoxycarbonyl-4-phenylpiperidin-1-yl)propyl)) carboxamido-1,4-dihydro-6-methyl-4-(3,4-methylenedioxy) phenylpyridine], for which the Ki was 1020 nM in assay [1] (setting [5]) and 851 nM in assay [2] (setting [6]).

Regarding `CCC1=C(C(=O)NC)C(c2ccc([N+](=O)[O-])cc2)C(C(=O)NCCCN2CCC(c3ccccc3)(c3ccccc3)CC2)=C(CCCCOC)N1` (centres unmarked) [Example 173, 6-Ethyl-1,4-dihydro-2-(4-methoxybutyl)-5-(N-methyl)carboxamido-4-(4-nitrophenyl)-3-{N-[3-(4,4-diphenylpiperidin-1-yl)propyl]}carboxamidopyridine], the Ki in assay [1] (setting [3]) is 269 nM; in assay [2] (setting [4]), 741 nM.

Consider `COC(=O)C1=C(C)NC(C)=C(C(=O)NCCCN2CCC(c3ccccc3)CC2)C1c1ccc(C)cc1` (centres unmarked) [Example 31, 1,4-Dihydro-3-methoxycarbonyl-2,6-dimethyl-4-(4-methylphenyl)-5-(N-(3-(4-phenylpiperidin-1-yl)propyl)carboxamido)pyridine], for which the Ki in assay [1] (setting [8]) was 158 nM; in assay [2] (setting [9]), 112 nM.
